The numbers were not newly measured in patent US9668974B2, “Depot formulations of a local anesthetic and methods for preparation thereof” (PAINREFORM LTD., priority 2012, dated 2017), which cites them from elsewhere.

The conditions of the series: in vivo.

Consider `CCCN1CCCC[C@H]1C(=O)Nc1c(C)cccc1C` [ropivacaine], for which the Toxic threshold (plasma ropivacaine) is 0.6 µg/mL.
